Results on 22 compounds are retold here after patent publication US20250263408A1 (Uniquest Pty Ltd, priority 2022, published 2025).

One data set has as its target T1, Syk (Homo sapiens, UniProt P43405).
T1 construct: purchased Promega
As to the kind of experiment: Syk Biochemical Assay (ADP-Glo luminescence). The settings on record: ATP 40 μM final, 60 minutes, read-out: SYK Biochem IC50. A general note: ADP-Glo turns the ADP formed in a reaction into a luminescent signal.

The next data set has as its target T2, Ba/F3-Syk cells (Homo sapiens, UniProt P43405).
T2 construct: fused on or other part: Possible but unprinted fusion partner: TEL (ETV6), the usual partner for Ba/F3 lines transformed by Syk; Nothing on a partner is printed
Description: Ba/F3 Proliferation Assay, Ba/F3-Syk cells (Resazurin). Type of data set: cell-based. The following applies: 48-hour incubation.

Data set [1] has as its system Ba/F3-WT (wild type) cells. Description: Ba/F3 Proliferation Assay, Ba/F3-WT (wild type) cells with mIL-3 (Resazurin). The following applies: Mus musculus, BaF3, 48 h, Ba/F3-WT cells +mIL-3, 48-hour incubation. It counts as cell-based.
The nature of data set [2]: Brain Penetration Assays: Mouse Pharmacokinetics (plasma and brain levels after oral dose). It counts as in vivo. The following applies: male, CD-1, mouse, mice, 1 hour post oral dose of 10 mg/kg; for concentration at 1 h: brain (free, unbound); for Kp at 1 h: brain / plasma (unbound), read-out: Kpu,u (ratio of unbound brain levels to unbound plasma levels). On the procedure:
Male CD-1 mice (6-8 weeks of age, 3 animals per timepoint) were dosed via oral gavage (10 mL/kg) with compound (10 mg/kg, 0.5% methylcellulose in water). Blood samples were taken either non-terminal via saphenous vein or terminal via cardiac puncture and stored in 1.5 mL Eppendorf tubes containing 0.010 mL of 10% K2EDTA, mixed gently and placed in ice before centrifugation. Blood was centrifuged at 10,000 r.p.m. for 2 minutes, plasma harvested and stored at −80° C. Following blood collection at the terminal time points, animals were sacrificed with C02 and brains quickly removed, rinsed with cold saline (0.9% NaCl), surface vasculature ruptured, blotted with dry gauze or tissue and weighed. The whole brain was homogenized in 1.0 mL ice cold phosphate-buffered saline, pH 7.4 and the homogenates stored at −80° C. Compound concentrations were quantified in plasma and brain tissue by LC-MS/MS using a partially validated bioanalytical method.
The Rapid Equilibrium Dialysis (RED) method was employed with plasma (200 μL, BioIVT, USA) in phosphate buffered saline (PBS, 350 μL) incubated with compound (1 μM) at 37° C. for 5 hours shaking at 450 r.p.m. Acetonitrile (3 volumes) was added and the sample centrifuged for 5 minutes and 1050 r.p.m. then for 15 minutes at 4000 r.p.m. Compound concentrations were quantified via LC-MS/MS from supernatant and free drug was calculated.
The RED method was employed with mouse brain homogenate (10% w/v prepared in-house)) incubated with compound (1 μM) at 37° C. for 5 hours shaking at 450 r.p.m. Acetonitrile (3 volumes) was added and the sample centrifuged for 5 minutes and 1050 r.p.m. then for 14 minutes at 4000 r.p.m. Compound concentrations were quantified via LC-MS/MS from supernatant and free drug was calculated.

SMILES strings stand for the structures. Some results are limits rather than exact numbers.

On to `C[C@@H](Oc1nc(-c2ccn(C)c2)cc2ncccc12)[C@@H]1CNCCO1` [Compound 2.44, 7-(1-methyl-1H-pyrrol-3-yl)-5-[(1R)-1-[(2S)-morpholin-2-yl]ethoxy]-1,6-naphthyridine], for which the IC50 (commonly the concentration needed to halve the response being measured) at Syk was 31 nM. The EC50 – broadly, the midpoint of the concentration-response curve – at Ba/F3-Syk cells was found to be 53.1 nM. In addition, the EC50 in data set [1] was 2110 nM. For the same compound, in data set [2], the concentration at 1 h is at most 10 nM and the Kp at 1 h was over 0.3.

For the compound `Cn1ccc(-c2cc3ncccc3c(OC[C@@H]3CNCC(C)(C)O3)n2)c1` [Compound 2.51, 5-{[(2S)-6,6-dimethylmorpholin-2-yl]methoxy}-7-(1-methyl-1H-pyrrol-3-yl)-1,6-naphthyridine], at Syk, the concentration for half-maximal inhibition (IC50) stood at 8.1 nM. Further, on Ba/F3-Syk cells, the EC50 came to 45.5 nM. In addition, the EC50 in data set [1] came out at 6070 nM. For the same compound, in data set [2], the concentration at 1 h is at most 25 nM and the Kp at 1 h was over 0.3.

Consider `Cn1cc(-c2cc3ncccc3c(OC[C@@H]3CNCC4(CCC4)O3)n2)cn1` [Compound 2.55, 7-(1-methyl-1H-pyrazol-4-yl)-5-{[(6S)-5-oxa-8-azaspiro[3.5]nonan-6-yl]methoxy}-1,6-naphthyridine], for which, on Syk, the IC50 worked out at 29.7 nM. In addition, the EC50 on Ba/F3-Syk cells came out at 43.8 nM. This compound also showed an EC50 in data set [1] of 3270 nM. For the same compound, in data set [2], the concentration at 1 h is over 25 nM and the Kp at 1 h lay within 0.05 to 0.1.

Regarding `CC(C)n1cc(-c2cc3ncccc3c(O[C@H](C)[C@@H]3CNCCO3)n2)cn1` [Compound 2.66, 5-[(1R)-1-[(2S)-morpholin-2-yl]ethoxy]-7-[1-(propan-2-yl)-1H-pyrazol-4-yl]-1,6-naphthyridine], the EC50 at Ba/F3-Syk cells was 14.5 nM. Further, a half-maximal response in data set [1] (EC50) required 1020 nM. Besides, in data set [2], the concentration at 1 h was at most 25 nM and the Kp at 1 h was in the range of 0.05 to 0.1.

For `C[C@@H](Oc1nc(-c2cnn(C(C)(C)C)c2)cc2ncccc12)[C@@H]1CNCCO1` [Compound 2.67, 7-(1-tert-butyl-1H-pyrazol-4-yl)-5-[(1R)-1-[(2S)-morpholin-2-yl]ethoxy]-1,6-naphthyridine], the IC50 at Syk was determined as 29.5 nM. Moreover, at Ba/F3-Syk cells, a half-maximal response (EC50) required 18.6 nM. In data set [1], the response was half-maximal at 1860 nM (EC50). For the same compound, in data set [2], the concentration at 1 h was at most 25 nM and the Kp at 1 h was in the range of 0.1 to 0.2.

Take `CC(C)n1ccc(-c2cc(OC[C@@H]3CNCC(C)(C)O3)c3nccnc3c2)c1` [Compound 8.3, 5-{[(2S)-6,6-dimethylmorpholin-2-yl]methoxy}-7-[1-(propan-2-yl)-1H-pyrrol-3-yl]quinoxaline]: the IC50 on Syk came out at 5.7 nM. In addition, the EC50 at Ba/F3-Syk cells is 5.6 nM; in data set [1], 833 nM.

For `COCCn1ccc(-c2cc(OC[C@@H]3CNCC(C)(C)O3)c3nccnc3c2)c1` [Compound 8.4, 5-{[(2S)-6,6-dimethylmorpholin-2-yl]methoxy}-7-[1-(2-methoxyethyl)-1H-pyrrol-3-yl]quinoxaline], the IC50 on Syk worked out at 7.4 nM. In addition, the EC50 on Ba/F3-Syk cells is 8.2 nM; in data set [1] it was 645 nM.

Turning to `CC1(C)CNC[C@@H](COc2cc(-c3ccn(CC(F)F)c3)cc3nccnc23)O1` [Compound 8.5, 7-[1-(2,2-difluoroethyl)-1H-pyrrol-3-yl]-5-{[(2S)-6,6-dimethylmorpholin-2-yl]methoxy}quinoxaline], the IC50 on Syk turned out to be 5.2 nM. Besides, the EC50 came out at 4.5 nM at Ba/F3-Syk cells and 735 nM in data set [1].

For the compound `CC(C)n1ccc(-c2cc(OC[C@@H]3CNCCO3)c3nccnc3c2)c1` [Compound 8.6, 5-{[(2S)-morpholin-2-yl]methoxy}-7-[1-(propan-2-yl)-1H-pyrrol-3-yl]quinoxaline], at Syk, the IC50 was 10.8 nM. The figures for the EC50 (on Ba/F3-Syk cells; in data set [1]) were 6.97 nM and 969 nM, respectively.

For the compound `FC(F)Cn1ccc(-c2cc(OC[C@@H]3CNCCO3)c3nccnc3c2)c1` [Compound 8.8, 7-[1-(2,2-difluoroethyl)-1H-pyrrol-3-yl]-5-{[(2S)-morpholin-2-yl]methoxy}quinoxaline], the IC50 at Syk was determined as 11.2 nM. In addition, the 50% effective concentration (EC50) at Ba/F3-Syk cells was 16.2 nM; in data set [1], 1270 nM.

As for `CC(C)n1ccc(-c2cc(OC[C@@H]3CNCCCO3)c3nccnc3c2)c1` [Compound 8.10, 5-{[(2S)-1,4-oxazepan-2-yl]methoxy}-7-[1-(propan-2-yl)-1H-pyrrol-3-yl]quinoxaline], at Syk, the IC50 turned out to be 11.8 nM. Besides, the concentration for a half-maximal effect (EC50) on Ba/F3-Syk cells worked out at 10.7 nM; in data set [1] it was 1620 nM.

Regarding `CC(C)n1ccc(-c2cc(OC[C@@H]3CNCC4(CCC4)O3)c3nccnc3c2)c1` [Compound 8.17, 5-{[(6S)-5-oxa-8-azaspiro[3.5]nonan-6-yl]methoxy}-7-[1-(propan-2-yl)-1H-pyrrol-3-yl]quinoxaline], the IC50 on Syk worked out at 14.7 nM. Further, the EC50 on Ba/F3-Syk cells was 4.3 nM; in data set [1], 684 nM.

On to `FC(F)Cn1ccc(-c2cc(OC[C@@H]3CNCC4(CCC4)O3)c3nccnc3c2)c1` [Compound 8.19, 7-[1-(2,2-difluoroethyl)-1H-pyrrol-3-yl]-5-{[(6S)-5-oxa-8-azaspiro[3.5]nonan-6-yl]methoxy}quinoxaline], for which the IC50 on Syk came out at 6.5 nM. For the same compound, the EC50 on Ba/F3-Syk cells was found to be 6.4 nM; in data set [1], 872 nM.

As for `C1=C(c2cc3ncccc3c(OC[C@@H]3CNCCO3)n2)CCC1` [Compound 10.1, 7-(cyclopent-1-en-1-yl)-5-{[(2S)-morpholin-2-yl]methoxy}-1,6-naphthyridine], the IC50 on Syk was found to be 209 nM. The EC50 on Ba/F3-Syk cells was 487 nM; in data set [1], over 10000 nM.

With `CC(C)n1cc(-c2cc(OC[C@@H]3CNCC4(CCC4)O3)c3cccnc3c2)cn1` [Compound 11.8, 5-{[(6S)-5-oxa-8-azaspiro[3.5]nonan-6-yl]methoxy}-7-[1-(propan-2-yl)-1H-pyrazol-4-yl]quinoline], at Syk, the IC50 was found to be 14.7 nM. For the same compound, the EC50 at Ba/F3-Syk cells was 7.4 nM; in data set [1], 551 nM.

Turning to `C[C@@H]1CNC[C@@H](COc2cc(-c3ccn(C(C)(C)C)c3)cc3nccnc23)O1` [Compound 12.8, 7-(1-tert-butyl-1H-pyrrol-3-yl)-5-{[(2S,6R)-6-methylmorpholin-2-yl]methoxy}quinoxaline], on Syk, the IC50 worked out at 5.1 nM. Besides, the results for the EC50 (at Ba/F3-Syk cells; in data set [1]) were 1.3 nM and 703 nM, respectively.

Turning to `CC(C)(C)n1cc(-c2cc3ncccc3c(OC[C@@H]3CNC[C@H](C(F)(F)F)O3)n2)cn1` [Compound 13.13, 7-(1-tert-butyl-1H-pyrazol-4-yl)-5-([(2S,6R)-6-(trifluoromethyl)morpholin-2-yl]methoxy}-1,6-naphthyridine], at Syk, the IC50 stood at 16.3 nM. Further, the concentration giving a half-maximal response (EC50) at Ba/F3-Syk cells is 41.8 nM; in data set [1], 1780 nM.

`CC(C)(C)n1cc(-c2cc3ncccc3c(OC[C@@H]3CNC[C@@H](C(F)(F)F)O3)n2)cn1` [Compound 13.14, 7-(1-tert-butyl-1H-pyrazol-4-yl)-5-{[(2S,6S)-6-(trifluoromethyl)morpholin-2-yl]methoxy}-1,6-naphthyridine]: the IC50 on Syk amounted to 35 nM. The EC50 at Ba/F3-Syk cells came to 233 nM; in data set [1], 1380 nM.

Turning to `CC(C)(C)n1cc(-c2cc3ncccc3c(OC[C@@H]3CNCC4(COC4)O3)n2)cn1` [Compound 13.15, 7-(1-tert-butyl-1H-pyrazol-4-yl)-5-{[(6S)-2,5-dioxa-8-azaspiro[3.5]nonan-6-yl]methoxy}-1,6-naphthyridine], the IC50 on Syk worked out at 19.8 nM. The EC50 came out at 47.2 nM on Ba/F3-Syk cells and 1910 nM in data set [1].

As to `C[C@@H]1NCCO[C@@H]1COc1nc(-c2cnn(C3(C)CC3)c2)cc2ncccc12` [Compound 13.16, 7-[1-(1-methylcyclopropyl)-1H-pyrazol-4-yl]-5-{[(2S,3S)-3-methylmorpholin-2-yl]methoxy}-1,6-naphthyridine], the IC50 on Syk worked out at 31.7 nM. Also, the results for the EC50 (on Ba/F3-Syk cells; in data set [1]) were 43 nM and 518 nM, respectively.

In the case of `CCc1ccnc2cc(-c3cnn(C(C)(C)C)c3)nc(OC[C@@H]3CNCC(C)(C)O3)c12` [Compound 14.14, 7-(1-tert-butyl-1H-pyrazol-4-yl)-5-{[(2S)-6,6-dimethylmorpholin-2-yl]methoxy}-4-ethyl-1,6-naphthyridine], the IC50 at Syk was determined as 33.6 nM. The EC50 was found to be 20.6 nM at Ba/F3-Syk cells and 1100 nM in data set [1].

Regarding `COc1ccnc2cc(-c3cnn(C(C)(C)C)c3)nc(OC[C@@H]3CNCC(C)(C)O3)c12` [Compound 14.15, 7-(1-tert-butyl-1H-pyrazol-4-yl)-5-{[(2S)-6,6-dimethylmorpholin-2-yl]methoxy}-4-methoxy-1,6-naphthyridine], the IC50 at Syk was 21.1 nM. Also, the EC50 at Ba/F3-Syk cells is 44 nM; in data set [1] it was 519 nM.
